Literature values in patent publication EP3957303A1, “PHARMACEUTICAL COMBINATION PREPARATION COMPRISING EZETIMIBE AND LOSARTAN” (Hanmi Pharm. Co., Ltd., priority 2019, dated 2020).

saturation solubility (under acidic to weakly basic conditions such as body fluids): about 1 ppm
solubility in water (water): practically insoluble in water
Compound: O=C1[C@H](CC[C@H](O)c2ccc(F)cc2)[C@@H](c2ccc(O)cc2)N1c1ccc(F)cc1 [Ezetimibe, 1-(4-fluorophenyl)-3(R)-[3-(4-fluorophenyl)-3(S)-hydroxypropyl]-4(S)-(4-hydroxyphenyl)-2-azetidinone]
